Measured values from US10093674B2, “Supramolecular nanofibers and hydrogels based on nucleic acids functionalized with nucleobases” (Brandeis University, priority 2011, dated 2018).

Columns and labels:
HeLa cells [1] = conditions: 500 μM, 72 hours; for cell viability: MTT assay
Text: To verify the biocompatibility of the hydrogelators, we added hydrogelator 1 or precursor 2 into the culture of HeLa cells and measured the proliferation of the cells.

[2] = system: alkaline phosphatase (ALP); conditions: 12 h after the addition of alkaline phosphatase, 31P NMR
Text: Following the procedures reported by Nieddu for making nucleobase acetic acids, we first synthesized bis(tert-butyloxycarbonyl) (bis-Boc) protected adenine, (N^6-bis-Boc-adenine-9-yl)-acetic acid (4). After being activated by N-hydroxysuccinimide (NHS), 4 reacts with L-Phe to afford 5, which undergoes the same NHS activation and phenylalanine coupling to give the key intermediate 6.

mammalian cells = conditions: 500 μM, 72 hours; for cell viability: mammalian cells, MTT assay
Procedure: To verify the biocompatibility of the hydrogelators, hydrogelators 1′ and 2′ were added into a culture of mammalian cells, and the proliferation of the cells was measured.

HeLa cells [3] = conditions: 500 μM 1T′ and 0.1 μM nucleic acid complex, 24 h
Procedure: HeLa cells were seeded in 2 well chamber slide at a density of 10,000 cell/well. […] After incubation at 37° C. for 24 h, we removed the culture medium, washed the cells by 1 mL PBS for 3 times, then resin the cells in 1 mL PBS. Fluorescence images were taken by using confocal fluorescence microscope. FIG. 34.

HeLa cells [4] = conditions: 500 μM in medium, 20 h
Procedure: HeLa cells were re-suspended in 10 cm tissue culture dish after washing cells once with PBS. 0.8 mL 0.25% trypsin containing 0.1% EDTA was then added, and the cells were re-suspended with 1.6 mL complete medium. 5000 cells (in 100 μL medium) were plated into each vial on a 96 well plate to create a confluent monolayer. After adherent for 24 h, a wound was created by scraping the cell monolayer with a p200 pipet tip. The cells were washed once with 100 μL of complete medium to remove flowing cells and replace with 100 μL of complete medium. 0 h image was acquired as a reference point. […] 0 h and 20 h images were acquired at the match photographed region.

Substance | cell viability (HeLa cells [1]) | cell viability (mammalian cells) | further results
Adenine-Phe-Phe [Compound 1A] | 100% | – | –
Adenine-Phe-Phe-Tyr-phosphate [Compound 2A] | 100% | – | transformation of precursor into hydrogelator [2]: completely transforms
Adenine-Phe-Phe-glucosamine [2A′] | – | 90% | –
Adenine-Phe-glucosamine [1A′] | – | – | cell viability (in words) (mammalian cells): decreased slightly
Cytosine-Phe-Glucosamine [1C′] | – | – | cell viability (in words) (mammalian cells): decreased slightly
Cytosine-Phe-Phe [Compound 1C] | 100% | – | –
Cytosine-Phe-Phe-Glucosamine [2C′] | – | 90% | –
Cytosine-Phe-Phe-Tyr-phosphate [Compound 2C] | 100% | – | –
Guanine-Phe-Phe [Compound 1G] | – | – | cell viability (in words) (HeLa cells [1]): decreases slightly
Guanine-Phe-Phe-Tyr-phosphate [Compound 2G] | – | – | cell viability (in words) (HeLa cells [1]): decreases slightly
Guanine-Phe-Phe-glucosamine [2G′] | – | 90% | –
Guanine-Phe-glucosamine [1G′] | – | 90% | –
Thymine-Phe-Phe [Compound 1T] | 100% | – | –
Thymine-Phe-Phe-Tyr-phosphate [Compound 2T] | 100% | – | –
Thymine-Phe-Phe-glucosamine [2T′] | – | 90% | –
Thymine-Phe-glucosamine [1T′] | – | 90% | delivery of FITC-labeled nucleic acid (HeLa cells [3]): nuclear localization of DNA; effect on the migration of cells (HeLa cells [4]): little inhibitory effect
